The text below walks through data of ChEMBL document CHEMBL5465560, “Selectivity Literature for EUbOPEN Chemogenomic Library” (2024).

SMILES strings stand for the structures.

Assay [1] has as its target T1, Phosphatidylinositol 5-phosphate 4-kinase type-2 gamma (Homo sapiens) (UniProt Q8TBX8).
T1 sequence (whole entry): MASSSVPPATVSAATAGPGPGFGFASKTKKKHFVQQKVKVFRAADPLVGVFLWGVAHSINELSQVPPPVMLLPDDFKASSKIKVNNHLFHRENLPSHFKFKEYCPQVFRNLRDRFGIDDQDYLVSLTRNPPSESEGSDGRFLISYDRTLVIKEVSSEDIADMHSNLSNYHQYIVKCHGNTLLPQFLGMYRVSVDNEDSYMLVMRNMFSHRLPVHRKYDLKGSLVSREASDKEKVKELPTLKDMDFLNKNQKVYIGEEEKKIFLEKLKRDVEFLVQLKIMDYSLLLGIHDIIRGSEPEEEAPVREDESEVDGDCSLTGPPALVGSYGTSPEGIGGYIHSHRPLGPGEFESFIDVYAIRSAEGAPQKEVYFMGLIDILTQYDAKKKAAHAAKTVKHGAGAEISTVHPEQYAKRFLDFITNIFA
The experiment in a line: Selectivity interaction (KinomeScan (DiscoverX)) EUB0000607a PIP4K2C. As to conditions: at 10 µM.

Assay [2] has as its target Interleukin-1 receptor-associated kinase 1 (Homo sapiens) (UniProt P51617). The experiment in a line: Selectivity interaction (KinomeScan (DiscoverX)) EUB0000229b IRAK1. As to conditions: at 10 µM.
The target in assay [3] is T2, Aurora kinase C (Homo sapiens) (UniProt Q9UQB9).
T2 sequence (whole entry): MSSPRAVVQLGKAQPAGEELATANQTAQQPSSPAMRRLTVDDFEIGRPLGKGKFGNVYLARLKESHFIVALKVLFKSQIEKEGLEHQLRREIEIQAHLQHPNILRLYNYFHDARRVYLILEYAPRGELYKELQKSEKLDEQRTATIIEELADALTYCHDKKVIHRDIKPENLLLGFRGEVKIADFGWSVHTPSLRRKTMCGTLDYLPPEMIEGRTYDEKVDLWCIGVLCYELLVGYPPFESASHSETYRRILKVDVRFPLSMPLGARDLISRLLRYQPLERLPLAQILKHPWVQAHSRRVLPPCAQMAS
The experiment in a line: Selectivity interaction (KinomeScan (DiscoverX)) EUB0000655a AURKC. As to conditions: at 10 µM.

The target in assay [4] is Tyrosine-protein kinase Fyn (Homo sapiens) (UniProt P06241). The experiment in a line: Selectivity interaction (KinomeScan (DiscoverX)) EUB0001079a FYN. As to conditions: at 1 µM.
Tyrosine-protein kinase Fyn (Homo sapiens), sequence (P06241 2-537 limits assumed): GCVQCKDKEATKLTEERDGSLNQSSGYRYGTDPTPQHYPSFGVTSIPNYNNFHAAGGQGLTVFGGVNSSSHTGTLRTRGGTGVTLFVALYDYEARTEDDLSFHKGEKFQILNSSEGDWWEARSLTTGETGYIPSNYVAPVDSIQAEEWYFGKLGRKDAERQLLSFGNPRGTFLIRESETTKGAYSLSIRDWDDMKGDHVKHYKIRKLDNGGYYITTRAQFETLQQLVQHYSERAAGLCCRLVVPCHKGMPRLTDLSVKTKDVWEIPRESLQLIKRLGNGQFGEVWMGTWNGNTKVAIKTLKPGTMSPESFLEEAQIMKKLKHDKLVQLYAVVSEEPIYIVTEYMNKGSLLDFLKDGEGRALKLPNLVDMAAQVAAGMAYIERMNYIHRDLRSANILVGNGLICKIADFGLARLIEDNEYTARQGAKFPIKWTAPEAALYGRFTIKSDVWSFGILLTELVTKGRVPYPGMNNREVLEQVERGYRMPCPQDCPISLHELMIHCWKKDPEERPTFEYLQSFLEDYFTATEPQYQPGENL
Assay [5] addresses Cyclin-dependent kinase 3 (Homo sapiens) (UniProt Q00526). The assay can be described thus: Selectivity interaction (KinomeScan (DiscoverX)) EUB0001079a CDK3. As to conditions: at 1 µM.
The target of assay [6] is T3, Serine/threonine-protein kinase D1 (Homo sapiens) (UniProt Q15139).
T3 sequence (whole entry): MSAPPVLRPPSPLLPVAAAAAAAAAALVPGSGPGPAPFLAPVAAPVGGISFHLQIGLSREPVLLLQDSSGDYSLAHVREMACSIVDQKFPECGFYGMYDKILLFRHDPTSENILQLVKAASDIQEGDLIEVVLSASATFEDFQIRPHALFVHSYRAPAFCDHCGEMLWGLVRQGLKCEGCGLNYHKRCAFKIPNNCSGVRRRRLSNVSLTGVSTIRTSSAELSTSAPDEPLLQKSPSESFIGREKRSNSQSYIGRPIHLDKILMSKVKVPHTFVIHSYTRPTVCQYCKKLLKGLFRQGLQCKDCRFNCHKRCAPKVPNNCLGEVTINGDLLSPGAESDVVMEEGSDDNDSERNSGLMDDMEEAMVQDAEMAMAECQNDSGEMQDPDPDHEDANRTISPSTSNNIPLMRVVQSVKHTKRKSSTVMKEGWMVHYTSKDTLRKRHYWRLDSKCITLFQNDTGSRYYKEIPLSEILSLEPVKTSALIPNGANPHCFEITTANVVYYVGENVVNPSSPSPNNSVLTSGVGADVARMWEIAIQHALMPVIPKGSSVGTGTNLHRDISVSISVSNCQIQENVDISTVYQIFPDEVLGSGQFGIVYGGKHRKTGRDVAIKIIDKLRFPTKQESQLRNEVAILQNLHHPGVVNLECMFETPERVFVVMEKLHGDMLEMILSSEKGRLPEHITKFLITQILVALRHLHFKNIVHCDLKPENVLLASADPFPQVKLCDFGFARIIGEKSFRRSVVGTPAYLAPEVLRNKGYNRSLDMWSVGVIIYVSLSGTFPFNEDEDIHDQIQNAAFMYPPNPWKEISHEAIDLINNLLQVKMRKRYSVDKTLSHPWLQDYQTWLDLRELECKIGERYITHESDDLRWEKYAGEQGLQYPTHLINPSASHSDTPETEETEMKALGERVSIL
The experiment in a line: Selectivity interaction (Kinase screening (Nanosyn)) EUB0000604a PRKD1.

The target of assay [7] is T4, MAP/microtubule affinity-regulating kinase 4 (Homo sapiens) (UniProt Q96L34).
T4 sequence (whole entry): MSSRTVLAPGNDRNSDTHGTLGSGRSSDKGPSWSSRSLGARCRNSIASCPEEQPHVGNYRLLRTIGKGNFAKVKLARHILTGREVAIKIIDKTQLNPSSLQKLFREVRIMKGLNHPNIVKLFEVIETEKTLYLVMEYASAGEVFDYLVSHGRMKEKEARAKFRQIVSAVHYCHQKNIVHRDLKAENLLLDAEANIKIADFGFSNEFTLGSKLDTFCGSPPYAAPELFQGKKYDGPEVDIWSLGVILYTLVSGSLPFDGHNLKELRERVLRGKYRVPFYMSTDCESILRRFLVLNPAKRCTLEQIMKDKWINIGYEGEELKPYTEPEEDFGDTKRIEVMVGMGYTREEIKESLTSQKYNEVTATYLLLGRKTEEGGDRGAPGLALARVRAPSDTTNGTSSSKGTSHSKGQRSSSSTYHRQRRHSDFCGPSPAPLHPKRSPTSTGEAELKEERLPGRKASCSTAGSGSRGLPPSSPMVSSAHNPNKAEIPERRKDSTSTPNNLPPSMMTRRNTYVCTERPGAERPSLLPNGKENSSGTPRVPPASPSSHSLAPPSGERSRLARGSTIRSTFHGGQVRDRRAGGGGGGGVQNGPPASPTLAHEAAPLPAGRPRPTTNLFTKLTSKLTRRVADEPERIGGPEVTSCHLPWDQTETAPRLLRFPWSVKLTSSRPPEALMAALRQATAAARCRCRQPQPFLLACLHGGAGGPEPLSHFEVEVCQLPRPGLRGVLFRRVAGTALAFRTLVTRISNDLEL
The experiment in a line: Selectivity interaction (KinomeScan (DiscoverX)) EUB0001049a MARK4. As to conditions: at 1 µM.

The target in assay [8] is Calcium/calmodulin-dependent protein kinase type II subunit beta (Homo sapiens) (UniProt Q13554). The assay can be described thus: Selectivity interaction (Kinase panel (DSF assay)) EUB0001559a CAMK2B. For orientation: DSF heats the sample and reads unfolding from a dye or from intrinsic fluorescence.
Calcium/calmodulin-dependent protein kinase type II subunit beta (Homo sapiens), sequence (Q13554 whole entry): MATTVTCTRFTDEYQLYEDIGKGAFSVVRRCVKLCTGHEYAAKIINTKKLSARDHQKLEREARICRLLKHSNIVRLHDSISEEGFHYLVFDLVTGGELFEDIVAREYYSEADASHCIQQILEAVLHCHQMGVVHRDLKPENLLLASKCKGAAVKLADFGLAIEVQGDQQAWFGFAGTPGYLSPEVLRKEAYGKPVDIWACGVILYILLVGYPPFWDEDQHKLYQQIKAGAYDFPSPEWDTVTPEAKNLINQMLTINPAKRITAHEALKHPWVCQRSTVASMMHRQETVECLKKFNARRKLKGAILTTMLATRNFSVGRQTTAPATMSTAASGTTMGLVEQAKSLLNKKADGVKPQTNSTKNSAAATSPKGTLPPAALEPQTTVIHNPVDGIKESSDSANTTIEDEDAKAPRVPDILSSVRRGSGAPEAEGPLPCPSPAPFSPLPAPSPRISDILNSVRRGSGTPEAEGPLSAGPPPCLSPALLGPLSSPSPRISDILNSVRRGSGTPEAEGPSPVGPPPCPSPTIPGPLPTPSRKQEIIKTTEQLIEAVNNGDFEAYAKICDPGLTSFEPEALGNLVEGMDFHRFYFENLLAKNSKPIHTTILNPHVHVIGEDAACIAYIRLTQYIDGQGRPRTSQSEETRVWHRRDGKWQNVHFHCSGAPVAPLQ
The next assay deals with Focal adhesion kinase 1 (Homo sapiens, UniProt Q05397). The experiment in a line: Selectivity interaction (KinomeScan (DiscoverX)) EUB0000045b PTK2.
Focal adhesion kinase 1, sequence (Q05397 2-1052 limits assumed): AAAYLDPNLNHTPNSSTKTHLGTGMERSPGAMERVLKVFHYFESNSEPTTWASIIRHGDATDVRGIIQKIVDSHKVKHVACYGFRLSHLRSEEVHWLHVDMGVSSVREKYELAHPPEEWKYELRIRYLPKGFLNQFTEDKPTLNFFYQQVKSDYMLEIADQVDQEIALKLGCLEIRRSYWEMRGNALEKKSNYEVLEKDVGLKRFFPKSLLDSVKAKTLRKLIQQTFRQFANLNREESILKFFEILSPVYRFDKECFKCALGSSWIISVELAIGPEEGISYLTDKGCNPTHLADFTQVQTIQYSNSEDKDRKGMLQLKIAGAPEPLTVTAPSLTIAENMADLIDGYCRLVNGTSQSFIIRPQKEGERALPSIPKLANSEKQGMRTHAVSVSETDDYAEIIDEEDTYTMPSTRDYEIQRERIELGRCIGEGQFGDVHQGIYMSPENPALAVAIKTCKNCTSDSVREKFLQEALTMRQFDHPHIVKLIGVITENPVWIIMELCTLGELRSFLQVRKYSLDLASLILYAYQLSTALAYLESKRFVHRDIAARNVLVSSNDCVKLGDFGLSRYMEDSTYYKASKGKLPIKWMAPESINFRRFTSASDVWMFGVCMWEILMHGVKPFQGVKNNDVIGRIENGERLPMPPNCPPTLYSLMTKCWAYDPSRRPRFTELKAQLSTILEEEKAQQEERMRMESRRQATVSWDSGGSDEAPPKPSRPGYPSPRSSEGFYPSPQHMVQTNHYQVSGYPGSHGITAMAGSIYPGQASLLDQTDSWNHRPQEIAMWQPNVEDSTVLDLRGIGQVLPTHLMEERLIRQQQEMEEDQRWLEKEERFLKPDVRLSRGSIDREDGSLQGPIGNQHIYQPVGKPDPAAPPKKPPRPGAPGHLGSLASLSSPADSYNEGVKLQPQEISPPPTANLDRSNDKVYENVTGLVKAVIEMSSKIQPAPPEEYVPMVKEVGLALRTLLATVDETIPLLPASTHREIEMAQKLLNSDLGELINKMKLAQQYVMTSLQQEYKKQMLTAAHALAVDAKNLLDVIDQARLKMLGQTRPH

Interleukin-1 receptor-associated kinase 1 (Homo sapiens), sequence (P51617 whole entry, looked up): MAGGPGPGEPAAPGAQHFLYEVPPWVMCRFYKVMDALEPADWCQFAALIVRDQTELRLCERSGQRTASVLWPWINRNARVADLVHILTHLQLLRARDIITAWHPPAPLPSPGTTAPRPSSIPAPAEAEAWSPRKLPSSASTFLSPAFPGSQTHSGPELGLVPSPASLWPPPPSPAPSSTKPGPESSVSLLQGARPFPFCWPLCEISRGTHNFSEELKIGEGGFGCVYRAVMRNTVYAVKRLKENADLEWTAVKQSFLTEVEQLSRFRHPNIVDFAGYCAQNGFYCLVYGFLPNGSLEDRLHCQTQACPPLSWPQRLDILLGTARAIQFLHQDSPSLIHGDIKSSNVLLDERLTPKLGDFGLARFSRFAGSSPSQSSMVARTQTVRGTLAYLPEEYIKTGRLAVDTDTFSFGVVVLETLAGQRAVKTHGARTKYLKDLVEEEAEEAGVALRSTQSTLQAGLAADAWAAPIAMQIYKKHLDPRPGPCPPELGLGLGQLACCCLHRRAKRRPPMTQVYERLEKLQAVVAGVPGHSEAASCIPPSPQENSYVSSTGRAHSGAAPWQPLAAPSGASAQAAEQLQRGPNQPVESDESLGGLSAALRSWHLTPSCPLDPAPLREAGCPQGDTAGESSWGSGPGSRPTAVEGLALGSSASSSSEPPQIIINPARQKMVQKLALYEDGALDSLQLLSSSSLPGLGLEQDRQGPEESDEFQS
Cyclin-dependent kinase 3 (Homo sapiens), sequence (Q00526 whole entry, looked up): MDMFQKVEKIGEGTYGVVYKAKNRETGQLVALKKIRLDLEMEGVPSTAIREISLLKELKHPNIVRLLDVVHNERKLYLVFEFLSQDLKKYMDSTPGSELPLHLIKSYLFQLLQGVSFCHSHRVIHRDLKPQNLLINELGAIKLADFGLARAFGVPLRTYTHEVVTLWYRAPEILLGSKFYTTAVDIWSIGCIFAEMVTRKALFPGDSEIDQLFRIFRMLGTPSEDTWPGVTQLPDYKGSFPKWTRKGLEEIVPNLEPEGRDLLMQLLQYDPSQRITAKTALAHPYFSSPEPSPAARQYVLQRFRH

The molecule `CNC(=O)Nc1ccc(-c2nc(N3CC4CCC(C3)O4)c3cnn(C4CCC5(CC4)OCCO5)c3n2)cc1` returned a % of control in [1] of 100%.
The molecule `COc1cc(N(C)c2ccnc3ccc(C(F)(F)F)cc23)cc(OC)c1OC` had a % binding in [2] of 88%.
In the case of `CN(C)CCOc1ccc(-c2nc(-c3ccncc3)c(-c3ccc4c(c3)CC/C4=N\O)[nH]2)cc1`, the % of control in assay [3] was 100%.
Regarding `Nc1cnc(N2CCc3cc(S(=O)(=O)Nc4c(F)cc(Cl)cc4F)cc(N4CCCC4=O)c32)nc1` [TP-020n], the figures for the % of control in assay [4] and in assay [5] were 58% and 100%, respectively.
Consider `Cc1cnc(Nc2ccc(F)cc2Cl)nc1-c1c[nH]c(C(=O)N[C@H](CO)c2cccc(Cl)c2)c1`, for which, in assay [6], the % of inhibition came to 43%.
In turn, `COc1cc(Nc2nc(C)cc(-c3cnn4nc(OC)ccc34)n2)cc(C(F)(F)F)c1` returned a % of control in [7] of 100%.
As for `CN(C(=O)c1cnn2cccnc12)c1cc2c(cc1N1CCOCC1)C(=O)N(C[C@@H](F)C(C)(C)O)C2`, in assay [8], the dTM was 0 K.
Consider `C=CC(=O)Nc1cc(-n2c(=O)ccc3cnc4ccc(-c5ccc(NS(C)(=O)=O)cc5)cc4c32)ccc1C`, for which the values for the % of control on Focal adhesion kinase 1 (at 1 µM) and on Focal adhesion kinase 1 (at 10 µM) were 96% and 100%, respectively.
